According to article PMC5131364, “Pharmacologic modulation of RORγt translates to efficacy in preclinical and translational models of psoriasis and inflammatory arthritis” (Scientific Reports, 2016):

Columns and labels:
human CCR6+ T cells = experiment: Human CCR6+ cells under Th1 differentiation condition; format: cell-based; details: Th1 polarization conditions
Description: Mouse CD4+ T cell in vitro Th1 differentiation
Total CD4+ T cells were isolated from splenocytes of C57/BL6 mice (Chareles River Labrotory) using a CD4+ T cell isolation kit (Miltenyl Biotec, Auburn, CA), following the manufacturer’s instructions. Cells were resuspended in culture medium (described in Method section of Th17 differentiation) and were added to 96‐well plates at 2x10^5 per well. Titrated JNJ‐54271074 was added to each well at final DMSO concentration of 0.2%. Cells were incubated for 1 hour, after which Th1 cell differentiation medium was added with final concentrations of 1 µg/ml anti‐CD3, 5 µg/mL anti‐CD28 (BD Pharmingen, San Diego, CA), 10 µg/ml anti‐IL4, 10 ng/mL IL‐12, (R&D Systems, Minneapolis, MN). Cells were cultured at 37 °C and 5% CO2 for 3 days. Supernatants were collected and the accumulated cytokines in culture were measured by ELISA kits (R&D Systems, Minneapolis, MN) following manufacturers' instructions.
IL‐23 induced IL‐17A and IL‐22 production in mouse splenocytes splenocytes were isolated from C57/BL6 mice and resuspended in medium and cultured in 96‐well plates at […] per 100 µL per well. Titrated JNJ‐54271074 in DMSO were added into each well and cells were incubated for 1 hour, then medium containing IL‐23 and IL‐2 (R&D systems) was added to each well at final concentration of 1 ng/mL and 10 U/ml, respectively. Cells were cultured at 37 °C and 5% CO2 for 4 days. Supernatants were collected and the accumulated cytokines in culture were measured by ELISA according to the manufacturer’s instructions (IL‐17A kit from R&D systems, and IL‐22 from Biolegend San Diego).
Human CCR6+ cells in vitro culture without activation or under Th1 differentiation condition Human CCR6+ cells were isolated as described in Method. For experiment without activation, cells were cultured with recombinant IL‐7 (R&D) at final concentration of 10 ng/ml in the presence of 1 µM JNJ‐ 54271074 for 4 days before intracellular staining. […]

mouse iNKT cells = experiment: Mouse NKT cell in vitro activation; format: cell-based; details: IL-1β/IL-23 plus anti-IFNγ, 4 days, 1 μM
Text: The following antibodies (anti-mouse or anti-human) were purchased from BD Biosciences (San Diego, CA) or eBioscience (San Diego, CA): anti-CD3-FITC (mouse 17A2 and human SK7), anti-CD4-allophycocyanin (APC), anti-CD4-PerCp, anti-CD4-FITC, anti-CD4-PE (mouse GK1.5 and human SK3), anti-CD44-PerCp (mouse IM7), anti-γδ TCR-FITC, anti-γδ TCR-PE (mouse GL3 and human B1), anti-CD62L-FITC (mouse MEL-14 and human SK11), anti-CD45RO-APC (human UCHL1), anti-CCR6-PE (human 11A9), anti-CD45-PerCp (mouse 30-F11). […] Cells were stained with fluorescence-labeled antibodies for surface marker, then fixed/permeabilized (eBioscience) and stained with antibodies for intracellular cytokines. […] The data were acquired on a FACS Calibur (BD Bioscience) and analyzed using FlowJo software (Tree Star, San Carlos, CA).
Single cell suspension was generated from mouse mesenteric lymph-nodes. […] NKT cells were identified among total live cells using anti-CD3 and mouse conjugated CD1d-tetramer pre-loaded with alpha-GalCer, and cytokine-producing NKT cells were analyzed through intracellular staining. […]

Compound: COc1nc2ccc([C@@](O)(c3ccc(C)nc3C)c3cnnn3C)cc2c(Cl)c1Cc1ccc(C(F)(F)F)cc1 [JNJ-54271074]
- accumulated IFNγ production (human CCR6+ T cells): minimal effect
- IFNγ+ cells (human CCR6+ T cells; 1 μM): slightly increased
- IL-17A+/IFNγ+ and IL-17A+ cells (human CCR6+ T cells; 1 μM): decreased
- IL-17A production by mouse iNKT cells (mouse iNKT cells): suppressed
